This assay relates to A549 cell line. As to the kind of experiment: WST-1 assay of drug responsiveness to pelitinib in A549 with LEPRE1 overexpression or inhibited expression. The assay is classed as cell-based. The following applies: Homo sapiens. The protocol:
The expression level of LEPRE1 was identified by Western blot, and a test (WST-1 assay) of drug responsiveness to pelitinib was carried out. […] It was confirmed that LEPRE1 overexpression had the effect of increasing drug sensitivity to pelitinib. […] It was confirmed that the inhibited LEPRE1 expression had the effect of reducing drug sensitivity to pelitinib.
The loss-of-function effect whereby drug sensitivity to pelitinib decreases was confirmed when LEPRE1 expression was inhibited.

The source of these data is US20230131334A1, “COMPANION DIAGNOSTIC BIOMARKERS OF EGFR INHIBITOR” (SYNTEKABIO, INC., priority 2020, published 2023).

As to `CCOc1cc2ncc(C#N)c(Nc3ccc(F)c(Cl)c3)c2cc1NC(=O)/C=C/CN(C)C` [pelitinib, Pelitinib], the IC50 is, setting by setting: (A549, A549 overexpressing LEPRE1/pcDNA3.1, then treated with pelitinib) 1030 ± 40.6 nM; (A549, A549 overexpressing pcDNA3.1 (empty vector), then treated with pelitinib) 1670 ± 520 nM; (A549, A549 transfected with LEPRE1 siRNA (si2293), then treated with pelitinib) 4010 ± 1010 nM; (A549, A549 transfected with negative control, then treated with pelitinib) 1730 ± 187 nM.
